In US10323041B2, “Bicyclic derivatives, a process for their preparation and pharmaceutical compositions containing them” (LES LABORATOIRES SERVIER, priority 2015, dated 2019):

target: Mcl-1 protein (Homo sapiens, UniProt Q07820); assay: Inhibition of Mcl-1 by the fluorescence polarisation technique; assay type: binding; details: @ 10 μM test compound; partial inhibitors
Procedure: The relative binding potency of each compound was determined via fluorescence Polarisation (FP). The method utilised a Fluorescein labelled ligand Fluorescein-βAla-Ahx-[A-REIGAQLRRMADDLNAQY (SEQ ID NO: 1)]-OH; mw 2,765) which binds to the Mcl-1 protein (such that corresponds to the UniProtKB® primary accession number: Q07820) leading to an increased anisotropy measured in milli-polarisation (mP) units using a reader. The addition of a compound which binds competitively to the same site as the ligand will result in a greater proportion of unbound ligand in the system indicated by a decrease in mP units.
Method 1: An 11 point serial dilution of each compound was prepared in DMSO and 2 μl transferred into flat bottomed, low binding, 384-well plate (final DMSO concentration 5%). 38 μl of buffer (10 mM 4-(2-hydroxyethyl)-1-piperazineethanesulfonic acid [HEPES], 150 mM NaCl, 0.05% Tween 20, pH 7.4), containing the Fluorescein labelled ligand (final concentration 1 nM) and Mcl-1 protein (final concentration 5 nM) was then added.
(§1) Assay plates were incubated ˜2 hours at room temperature before FP was measured on a […] Synergy2 reader (Ex. 528 nm, Em. 640 nm, Cut off 510 nm) and mP units calculated. The binding of increasing doses of test compound was expressed as a percentage reduction in mP compared to a window established between ‘5% DMSO only’ and ‘100% inhibition’ controls. 11-point dose response curves were plotted with XL-Fit software using a 4-Parameter Logistic Model (Sigmoidal Dose-Response Model) and the inhibitory concentrations that gave a 50% reduction in mP (IC50) were determined. Results obtained using Method 1 are presented in Table 1 below; IC50 of Mcl-1 inhibition obtained using Method 1 are not underlined.
Method 2: An 11 point serial dilution of each compound was prepared in DMSO and 2 μl transferred into flat bottomed, low binding, 384-well plate (final DMSO concentration 5%). 38 μl of buffer (20 mM Na2HPO4, 1 mM EDTA, 50 mM NaCl, pH 7.4), containing the Fluorescein labelled ligand (final concentration 10 nM) and Mcl-1 protein (final concentration 10 nM) was then added.
as §1, with “inhibition’ controls (50 μM unlabelled ligand).” for “inhibition’ controls.”, “Method 2” for “Method 1”, “are” for “are not”

Chain of Mcl-1 protein (Q07820 whole entry): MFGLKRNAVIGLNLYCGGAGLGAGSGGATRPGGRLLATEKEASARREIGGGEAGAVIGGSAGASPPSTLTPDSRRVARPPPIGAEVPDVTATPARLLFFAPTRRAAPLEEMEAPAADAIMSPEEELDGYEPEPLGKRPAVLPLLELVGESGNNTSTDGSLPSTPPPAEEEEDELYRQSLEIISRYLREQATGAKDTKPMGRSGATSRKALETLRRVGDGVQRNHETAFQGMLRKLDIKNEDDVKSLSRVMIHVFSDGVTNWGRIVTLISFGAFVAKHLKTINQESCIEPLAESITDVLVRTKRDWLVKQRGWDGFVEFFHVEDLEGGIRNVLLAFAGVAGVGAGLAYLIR

percentage fluorescence polarization inhibition [% @ 10 μM] | SMILES
65.85 | CCc1sc2cccc(OC(Cc3ccccc3)C(=O)O)c2c1-c1ccc(O)c(Cl)c1C [Example 50, (2R)-2-{[(3Ra)-3-(3-chloro-4-hydroxy-2-methylphenyl)-2-ethyl-1-benzothiophen-4-yl]oxy}-3-phenylpropanoic acid]
51.9 | COc1ccccc1CC(Oc1cccc2cc(-c3ccco3)n(-c3ccc(OCCN4CCN(C)CC4)c(Cl)c3C)c12)C(=O)O [Example 58, (2R)-2-{[(1Ra)-1-{3-chloro-2-methyl-4-[2-(4-methylpiperazin-1-yl)ethoxy]phenyl}-2-(furan-2-yl)-1H-indol-7-yl]oxy}-3-(2-methoxyphenyl)propanoic acid]

same assay, conditions: @ 10 μM test compound; partial inhibitors; read-out: percentage fluorescence polarization inhibition

inhibition at 10 µM [%] | SMILES
13.6 | Cc1c(Cl)cccc1-c1csc2ccnc(N[C@H](Cc3ccccc3)C(=O)O)c12 [Example 70, N-[3-(3-chloro-2-methylphenyl)thieno[3,2-c]pyridin-4-yl]-D-phenylalanine]

same assay, conditions: @ 50 μM test compound; partial inhibitors

percentage fluorescence polarization inhibition [% @ 50 μM] | SMILES
66.9 | C=CCn1c(Br)c(-c2cccc(Cl)c2C)c2c(NC(Cc3ccccc3)C(=O)O)ncnc21 [Example 43, N-[6-bromo-(5Ra)-5-(3-chloro-2-methylphenyl)-7-(prop-2-en-1-yl)-7H-pyrrolo[2,3-d]pyrimidin-4-yl]-D-phenylalanine]
74.2 | CCc1c(-c2cccc(Cl)c2C)c2c(NC(Cc3ccccc3)C(=O)O)ncnc2n1CC1CC1 [Example 22, N-[(5Ra)-5-(3-chloro-2-methylphenyl)-7-(cyclopropylmethyl)-6-ethyl-7H-pyrrolo[2,3-d]pyrimidin-4-yl]-D-phenylalanine]
63.25 | CCc1c(-c2cccc(Cl)c2C)c2c(NC(Cc3ccccc3)C(=O)O)ncnc2n1CC(F)(F)F [Example 28, N-[(5Ra)-5-(3-chloro-2-methylphenyl)-6-ethyl-7-(2,2,2-trifluoroethyl)-7H-pyrrolo[2,3-d]pyrimidin-4-yl]-D-phenylalanine]

same assay, conditions: @ 50 μM test compound; partial inhibitors; 50 µM

percentage fluorescence polarization inhibition [% @ 50 μM] | SMILES
67 | CCc1c(-c2cccc(Cl)c2C)c2c(N[C@H](Cc3ccccc3)C(=O)O)ncnc2n1C(C)C [Example 38, N-[(5Ra)-5-(3-chloro-2-methylphenyl)-6-ethyl-7-(propan-2-yl)-7H-pyrrolo[2,3-d]pyrimidin-4-yl]-D-phenylalanine]

same assay, conditions: @ 50 μM test compound; partial inhibitors; read-out: percentage fluorescence polarization inhibition

inhibition at 50 µM [%] | SMILES
71 | Cc1c(Cl)cccc1-c1c2n(c3ncnc(N[C@H](Cc4ccccc4)C(=O)O)c13)CCC2 [Example 46, N-[5-(3-chloro-2-methylphenyl)-7,8-dihydro-6H-pyrimido[5,4-b]pyrrolizin-4-yl]-D-phenylalanine]

same assay, conditions: Method 1 (not underlined) or Method 2 (underlined); underlining not visible; first value where cell prints two; read-out: IC50 (M) Mcl-1 FP

SMILES | IC50 [M]
Cc1c(-c2c(-c3ccc(F)cc3)oc3cc(F)cc(OC(Cc4ccccc4OCC(F)(F)F)C(=O)O)c23)ccc(OCCN2CCN(C)CC2)c1Cl [Example 66, (2R)-2-{[(3Sa)-3-{3-chloro-2-methyl-4-[2-(4-methylpiperazin-1-yl)ethoxy]phenyl}-6-fluoro-2-(4-fluorophenyl)-1-benzofuran-4-yl]oxy}-3-[2-(2,2,2-trifluoroethoxy)phenyl]propanoic acid] | 1.6e-06
COc1ccccc1-c1nccc(COc2ccccc2CC(Oc2cccc3oc(-c4ccc(F)cc4)c(-c4ccc(OCCN5CCN(C)CC5)c(Cl)c4C)c23)C(=O)O)n1 (single isomer, unassigned) [Example 63] | 1.7e-07
CCc1c(-c2cccc3ccccc23)c2c(N[C@H](Cc3ccccc3)C(=O)O)ncnc2n1CCCc1ccccc1 (single isomer, unassigned) [Example 18, N-[6-ethyl-5-(naphthalen-1-yl)-7-(3-phenylpropyl)-7H-pyrrolo[2,3-d]pyrimidin-4-yl]-D-phenylalanine] | 3.1e-06
COc1ccccc1CC(Oc1cccc2c(Cl)c(-c3ccc(F)cc3)n(-c3ccc(OCCN4CCN(C)CC4)c(Cl)c3C)c12)C(=O)O [Example 57, (2R)-2-{[3-chloro-(1Sa)-1-{3-chloro-2-methyl-4-[2-(4-methylpiperazin-1-yl)ethoxy]phenyl}-2-(4-fluorophenyl)-1H-indol-7-yl]oxy}-3-(2-methoxyphenyl)propanoic acid] | 1.7e-07
CCc1c(-c2cccc3ccccc23)c2c(N[C@H](Cc3ccccc3)C(=O)O)ncnc2n1CCc1ccccc1 (single isomer, unassigned) [Example 16, N-[6-ethyl-5-(naphthalen-1-yl)-7-(2-phenylethyl)-7H-pyrrolo[2,3-d]pyrimidin-4-yl]-D-phenylalanine] | 1.8e-06
CCc1c(-c2cccc3ccccc23)c2c(N[C@H](Cc3ccccc3)C(=O)O)ncnc2n1CCOc1cccc2ccccc12 (single isomer, unassigned) [Example 15, N-{6-ethyl-5-(naphthalen-1-yl)-7-[2-(naphthalen-1-yloxy)ethyl]-7H-pyrrolo[2,3-d]pyrimidin-4-yl}-D-phenylalanine] | 7.3e-06

The remaining lines, values ahead:

IC50 [M] | SMILES
5.9e-06 | CC#CCn1c(CC)c(-c2cccc(Cl)c2C)c2c(NC(Cc3ccccc3)C(=O)O)ncnc21 (single isomer, unassigned) [Example 26, N-[7-(but-2-yn-1-yl)-(5Ra)-5-(3-chloro-2-methylphenyl)-6-ethyl-7H-pyrrolo[2,3-d]pyrimidin-4-yl]-D-phenylalanine]
6.8e-06 | CCc1c(-c2cccc(Cl)c2C)c2c(NC(Cc3ccccc3)C(=O)O)ncnc2n1CC1CC1 [Example 23, N-[(5Sa)-5-(3-chloro-2-methylphenyl)-7-(cyclopropylmethyl)-6-ethyl-7H-pyrrolo[2,3-d]pyrimidin-4-yl]-D-phenylalanine]
8.5e-06 | CCc1c(-c2cccc(Cl)c2C)c2c(NC(Cc3ccccc3)C(=O)O)ncnc2n1CC(F)(F)F [Example 29, N-[(5Sa)-5-(3-chloro-2-methylphenyl)-6-ethyl-7-(2,2,2-trifluoroethyl)-7H-pyrrolo[2,3-d]pyrimidin-4-yl]-D-phenylalanine]
6.4e-06 | CCc1c(-c2cccc(Cl)c2C)c2c(NC(Cc3ccccc3)C(=O)O)ncnc2n1Cc1ccc(OC)cc1 (single isomer, unassigned) [Example 34, N-[(5Ra)-5-(3-chloro-2-methylphenyl)-6-ethyl-7-(4-methoxybenzyl)-7H-pyrrolo[2,3-d]pyrimidin-4-yl]-D-phenylalanine]
1.8e-05 | C=CCn1c(CC)c(-c2cccc(Cl)c2C)c2c(NC(Cc3ccccc3)C(=O)O)ncnc21 (single isomer, unassigned) [Example 24, N-[(5Ra)-5-(3-chloro-2-methylphenyl)-6-ethyl-7-(prop-2-en-1-yl)-7H-pyrrolo[2,3-d]pyrimidin-4-yl]-D-phenylalanine]
2.5e-06 | C=CCn1c(Br)c(-c2cccc(Cl)c2C)c2c(NC(Cc3ccccc3)C(=O)O)ncnc21 [Example 44, N-[6-bromo-(5Sa)-5-(3-chloro-2-methylphenyl)-7-(prop-2-en-1-yl)-7H-pyrrolo[2,3-d]pyrimidin-4-yl]-D-phenylalanine]
7.9e-07 | CCc1c(-c2cccc(Cl)c2C)c2c(NC(Cc3ccccc3)C(=O)O)ncnc2n1CCC1CCCC1 (single isomer, unassigned) [Example 31, N-[(5Sa)-5-(3-chloro-2-methylphenyl)-7-(2-cyclopentylethyl)-6-ethyl-7H-pyrrolo[2,3-d]pyrimidin-4-yl]-D-phenylalanine]
6.4e-06 | CCc1c(-c2cccc(Cl)c2C)c2c(NC(Cc3ccccc3)C(=O)O)ncnc2n1CCC1CCCC1 (single isomer, unassigned) [Example 30, N-[(5Ra)-5-(3-chloro-2-methylphenyl)-7-(2-cyclopentylethyl)-6-ethyl-7H-pyrrolo[2,3-d]pyrimidin-4-yl]-D-phenylalanine]
2.9e-07 | CCc1c(-c2cccc(Cl)c2C)c2c(NC(Cc3ccccc3)C(=O)O)ncnc2n1Cc1ccc(OC)cc1 (single isomer, unassigned) [Example 35, N-[(5Sa)-5-(3-chloro-2-methylphenyl)-6-ethyl-7-(4-methoxybenzyl)-7H-pyrrolo[2,3-d]pyrimidin-4-yl]-D-phenylalanine]
